Measured values reported in PubChem BioAssay AID276 (DTP/NCI, 2004).
Several values for one entry are separate records, joined by “and”; a condition that tells them apart may be missing. Equal values may be shown once. Inconclusive results and toxic doses are left out. Rule for the calls: active = survival T/C of 150% or more; inactive = T/C below 125% in these data.

Test system: B6C3F1 mice, Lewis lung carcinoma iv, survival T/C
Assay: NCI In Vivo Anticancer Drug Screen. Data for tumor model Lewis Lung Carcinoma (intravenous) in B6C3F1 mice
Conditions: endpoint: median survival time, higher = longer survival
Outline: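 Tumors were transplanted into mice, which were then dosed with compound or vehicle. Survival was recorded in each group, and the treated figure was divided by the control figure.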

[1] = dose: 25.0 mg/kg/injection, schedule: Q01DX009 (ip), vehicle: water
[2] = dose: 25.0 mg/kg/injection, schedule: Q01DX009 (ip), vehicle: saline with Tween-80
[3] = dose: 50.0 mg/kg/injection, schedule: Q01DX009 (ip), vehicle: saline with Tween-80
[4] = dose: 100.0 mg/kg/injection, schedule: Q01DX009 (ip), vehicle: saline with Tween-80

Measured: T/C

OC1OC2COC(c3ccccc3)OC2C(O)C1O (configuration not stated)
inactive: [1] 101 % of control | dose: 50.0 mg/kg/injection, schedule: Q01DX009 (ip), vehicle: water 99 % of control | dose: 100.0 mg/kg/injection, schedule: Q01DX009 (ip), vehicle: water 98 % of control | dose: 200.0 mg/kg/injection, schedule: Q01DX009 (ip), vehicle: water 101 % of control | dose: 400.0 mg/kg/injection, schedule: Q01DX009 (ip), vehicle: water 99 % of control | dose: 800.0 mg/kg/injection, schedule: Q01DX009 (ip), vehicle: water 93 % of control

CCCCNC(C)C1(O)Cc2c(O)c3c(c(O)c2C(OC2CC(N)C(O)C(C)O2)C1)C(=O)c1c(OC)cccc1C3=O (configuration not stated)
inactive: dose: 10.0 mg/kg/injection, schedule: Q01DX009 (ip), vehicle: water 108 % of control | dose: 20.0 mg/kg/injection, schedule: Q01DX009 (ip), vehicle: water 101 % of control | dose: 40.0 mg/kg/injection, schedule: Q01DX009 (ip), vehicle: water 107 % of control | dose: 80.0 mg/kg/injection, schedule: Q01DX009 (ip), vehicle: water 113 % of control

CCOC(=O)CNC(=O)CCCCSc1ncnc2nc[nH]c12
inactive: dose: 40.0 mg/kg/injection, schedule: Q01DX009 (ip), vehicle: Klucel (hydroxypropylcellulose) (HPC) 101 % of control | dose: 80.0 mg/kg/injection, schedule: Q01DX009 (ip), vehicle: Klucel (hydroxypropylcellulose) (HPC) 112 % of control | dose: 160.0 mg/kg/injection, schedule: Q01DX009 (ip), vehicle: Klucel (hydroxypropylcellulose) (HPC) 110 % of control | dose: 320.0 mg/kg/injection, schedule: Q01DX009 (ip), vehicle: Klucel (hydroxypropylcellulose) (HPC) 95 % of control | dose: 640.0 mg/kg/injection, schedule: Q01DX009 (ip), vehicle: Klucel (hydroxypropylcellulose) (HPC) 111 % of control

C/C(=N\NC(=S)N1CCN(c2ccccn2)CC1)c1ccccn1
inactive: dose: 6.25 mg/kg/injection, schedule: Q01DX009 (ip), vehicle: water 109 % of control | dose: 12.5 mg/kg/injection, schedule: Q01DX009 (ip), vehicle: water 104 % of control | [1] 113 % of control

COc1nc(C(Cl)(Cl)Cl)c(Cl)c(OC)c1Cl
inactive: dose: 25.0 mg/kg/injection, schedule: Q01DX008 (ip), vehicle: Klucel (hydroxypropylcellulose) (HPC) 120 % of control | dose: 50.0 mg/kg/injection, schedule: Q01DX008 (ip), vehicle: Klucel (hydroxypropylcellulose) (HPC) 113 % of control | dose: 100.0 mg/kg/injection, schedule: Q01DX008 (ip), vehicle: Klucel (hydroxypropylcellulose) (HPC) 113 % of control

O=S(=O)(CCl)OCCCl
inactive: dose: 6.25 mg/kg/injection, schedule: Q01DX009 (ip), vehicle: saline with Tween-80 103 % of control and 86 % of control | dose: 12.5 mg/kg/injection, schedule: Q01DX009 (ip), vehicle: saline with Tween-80 100 % of control and 111 % of control | [2] 99 % of control and 101 % of control and 109 % of control | [3] 104 % of control and 114 % of control and 88 % of control
118 % of control and 258 % of control: [4]

CC(=O)Oc1[nH]c(=O)c2cccc3c2c1CCC3
inactive: [2] 104 % of control | [3] 122 % of control | [4] 102 % of control | dose: 200.0 mg/kg/injection, schedule: Q01DX009 (ip), vehicle: saline with Tween-80 107 % of control | dose: 400.0 mg/kg/injection, schedule: Q01DX009 (ip), vehicle: saline with Tween-80 105 % of control

CO[C@H]1Nc2c(ccc(C)c2O)C(=O)N2C=C(/C=C/C(N)=O)C[C@@H]12
inactive: dose: 0.06 mg/kg/injection, schedule: Q01DX009 (ip), vehicle: saline + alcohol 105 % of control | dose: 0.12 mg/kg/injection, schedule: Q01DX009 (ip), vehicle: saline + alcohol 100 % of control | dose: 0.25 mg/kg/injection, schedule: Q01DX009 (ip), vehicle: saline + alcohol 113 % of control

O=c1[nH]cccc1O
inactive: dose: 16.0 mg/kg/injection, schedule: Q01DX009 (ip), vehicle: saline with Tween-80 98 % of control | dose: 32.0 mg/kg/injection, schedule: Q01DX009 (ip), vehicle: saline with Tween-80 94 % of control | dose: 64.0 mg/kg/injection, schedule: Q01DX009 (ip), vehicle: saline with Tween-80 103 % of control | dose: 256.0 mg/kg/injection, schedule: Q01DX009 (ip), vehicle: saline with Tween-80 101 % of control

CC1(C)CC(=O)C(CSC(=O)c2ccccc2)C(=O)C1
inactive: dose: 3.13 mg/kg/injection, schedule: Q01DX009 (ip), vehicle: Klucel (hydroxypropylcellulose) (HPC) 101 % of control | dose: 6.25 mg/kg/injection, schedule: Q01DX009 (ip), vehicle: Klucel (hydroxypropylcellulose) (HPC) 95 % of control | dose: 12.5 mg/kg/injection, schedule: Q01DX009 (ip), vehicle: Klucel (hydroxypropylcellulose) (HPC) 95 % of control | dose: 25.0 mg/kg/injection, schedule: Q01DX009 (ip), vehicle: Klucel (hydroxypropylcellulose) (HPC) 103 % of control | dose: 50.0 mg/kg/injection, schedule: Q01DX009 (ip), vehicle: Klucel (hydroxypropylcellulose) (HPC) 103 % of control

CC(C)=CC(=O)OC1C2C(C)=CC(=O)C(O)C2(C)C2C3(O)OCC24C(CC(=O)OC14)C(C)C3O (configuration not stated)
inactive: dose: 0.25 mg/kg/injection, schedule: Q01DX009 (ip), vehicle: distilled water + Tween-80 107 % of control | dose: 0.5 mg/kg/injection, schedule: Q01DX009 (ip), vehicle: distilled water + Tween-80 98 % of control | dose: 1.0 mg/kg/injection, schedule: Q01DX009 (ip), vehicle: distilled water + Tween-80 102 % of control | dose: 2.0 mg/kg/injection, schedule: Q01DX009 (ip), vehicle: distilled water + Tween-80 98 % of control
